In US20200063210A1, “Gene Expression Signatures Associated with Patient Response to Acute Myeloid Leukemia Treatment and Use Thereof for Predicting Response to Therapy” (WAKE FOREST UNIVERSITY HEALTH SCIENCES, priority 2016, published 2020):

What was measured:
K562 cells = assay: Oxygen consumption rate after Ara-C, K562; type: cell-based; settings: Ara-C for 16 hours
Procedure: (§1) FIGS. 2A-2B. […] K562 cells (FIG. 2A) and OCI-AML3 (FIG. 2B) and were treated with Ara-C for 16 hours and oxygen consumption rate (OCR) was assessed. Shown is the average OCR from 3 independent experiments each done in triplicate. P value for OCI-AML3 is 0.0387 and for K562 is <0.0001.

OCI-AML3 = assay: Oxygen consumption rate after Ara-C, OCI-AML3; type: cell-based; settings: Ara-C for 16 hours
Procedure: as §1

AML cell lines = assay: AML cell growth under mitochondrial inhibition; type: cell-based, human and murine; settings: for AML cell growth: multiple human and murine cell lines, single agent
Murine AML cells (M1p5) = assay: Viability of M1p5 AML cells expressing p53 shRNA or vector control; type: cell-based; settings: 72 hours; for response of p53 shRNA cells compared to vector controls (viability): single agent
Procedure: FIGS. 10A-10C. CPI-613 induces chemotherapy sensitivity in p53 suppressed AML cells. (FIG. 10A) Murine AML cells (M1p5) expressing an shRNA against p53 (p53 shRNA) or vector control (GFP Control) were exposed to the indicated amount of CPI-613 (in μmoles). After 72 hours viability was determined and compared to untreated cells. (FIG. 10B) Murine AML cells (M1p5) expressing an shRNA against p53 (p53 shRNA) or vector control (GFP Control) were exposed to the indicated amount of doxorubicin (in nmoles). After 72 hours viability was determined and compared to untreated cells. (FIG. 10C) Murine AML cells (M1p5) expressing an shRNA against p53 (p53 shRNA) or vector control (GFP Control) were exposed to 50 μM CPI-613 and 2.5, 5, or 10 nM Doxorubicin for 72 hours. Following exposure viability was assessed and compared to untreated cells.
Loss of p53 is associated with poor risk cytogenetics, poor prognosis and resistance to chemotherapy but not resistance to CPI-613. In AML patients poor risk karyotypes are associated with p53 loss or mutation in 70-80% of cases (13, 29). Indeed it has been argued that much of the prognostic importance of poor risk karyotypes is mediated by p53 loss (13). This is not surprising given the association between p53 status and response to chemotherapy in AML (30). In order to assess the consequences of p53 suppression on mitochondrial inhibition we generated murine AML cells that knocked down p53 by shRNA.

[1] = test system: relapsed or refractory AML; assay: Phase I study of CPI-613 in combination with high dose cytarabine and mitoxantrone; type: in vivo, human
Excerpt: FIGS. 8A-8B. Survival compared to historical cohort. CPI-HAM survival in the evaluable population compared to a historical cohort. (FIG. 8A) Kaplan-Meier curve of overall survival of elderly AML patients treated with high dose cytarabine, mitoxantrone, and CPI-613 (CPI-HAM) or a historical cohort of poor risk relapsed or refractory patients treated with high dose cytarabine, mitoxantrone, and asparaginase (HAMA). (FIG. 8B) Kaplan-Meier curve of overall survival of poor risk, relapsed or refractory AML patients treated with high dose cytarabine, mitoxantrone, and CPI-613 (CPI-HAM) or a historical cohort of poor risk relapsed or refractory patients treated with high dose cytarabine, mitoxantrone, and asparaginase (HAMA). Kaplan-Meier estimates were compared by log-rank test.
In a recently completed phase I study, CPI-613 was given in combination with high dose cytarabine and mitoxantrone to patients with relapsed or refractory AML (FIGS. 6-7). In this trial, 67 patients were enrolled and 62 were evaluable. […] The median age was 60 years (range 21-79). In patients with relapsed disease the median duration of CR1 was 11.2 months. Cytogenetics were poor risk in 27 patients, intermediate in 33, and good in 6. In the 62 evaluable patients the results were as follows. The overall response rate was 50% (26CR+5CRi) with a median survival of 6.7 months. […] When compared to historical controls treated with the same chemotherapy without CPI-613 an increase in response rate was seen. […] Additionally, the median survival of the historical patients was only 2.8 months while the median survival in the CPI-613 treated patients was 5.5 months (FIG. 8B). […] In patients >60 years old the CR/CRi rate was 47% (15/32) with a median survival of 6.9 months (FIG. 8A).

AMPK = AMPK phosphorylation blot of patient mononuclear cells after CPI-613 infusion; type: in vivo, human; settings: two patients, day one after infusion
Procedure: (§2) FIGS. 9A-9C. AMPK Contributes to Resistance to CPI-613. (FIG. 9A) CPI-613 induces AMPK phosphorylation. Blood samples were taken on day one of treatment at the indicated time points following infusion of CPI-613. Red blood cells were lysed, and mononuclear cells were isolated. Extracts were prepared and blotted for phosphorylated AMPK. Both patients had circulating blasts at the time of sampling. Actin was used as a loading control. (FIG. 9B) Competition assay. Cas9 expressing MFL2 cells were partially infected with an sgRNA vector targeting AMPK tagged with GFP. Cells were incubated with the indicated drug for 72 hours and the % GFP+determined in the viable population. (FIG. 9C) Viability assay. Clones of Cas9 expressing MFL2 cells with sgRNAs targeting AMPK or ROSA26 were incubated with the indicated drug for 72 hours and viability determined.
(§3) Several patients had blood samples taken before and after CPI-613 infusion. […] The role of AMPK in response was assessed by competition assays using Cas-9 expressing AML cells that have deleted AMPK (FIG. 9B).

[2] = test system: advanced myeloid malignancies; settings: single agent; heavily pre-treated cohort; cited from earlier work
PDH = PDH phosphorylation in patient blood samples before and after CPI-613 infusion; type: in vivo, human; settings: three patients
Procedure: as §3

Baf3-p210 cells = assay: Survival of Balb/c mice injected with Baf3-p210 cells; type: in vivo; settings: CPI at 250 mg/kg plus Doxorubicin at 3 mg/kg, day 3
Procedure: FIG. 4. […] Balb/c mice were injected with Baf3-p210 cells and on day 3 treated with saline (control), Doxorubicin at 3 mg/kg or CPI at 250 mg/kg plus doxorubicin. Dox=Doxorubicin, CPI=CPI-613. P value shown is for Dox vs CPI-Dox.

[3] = test system: AMPK deleted MFL2 AML cells; assay: Competition assay, Cas9 expressing MFL2 cells with sgRNA targeting AMPK; type: cell-based; settings: 72 hours with drug, % GFP+ in the viable population
Procedure: as §2, §3

[4] = 62 evaluable patients, CPI-613 with high dose cytarabine and mitoxantrone

Structure (SMILES): Nc1ccn([C@@H]2O[C@H](CO)[C@@H](O)[C@@H]2O)c(=O)n1 [cytarabine]
- oxygen consumption rate (OCR) (K562 cells): induces mitochondrial metabolism
- oxygen consumption rate (OCR) (OCI-AML3): induces mitochondrial metabolism

Structure (SMILES): CN(C)C(=N)N=C(N)N [metformin]
- AML cell growth (AML cell lines): impairs AML cell growth

Structure (SMILES): COc1cccc2c1C(=O)c1c(O)c3c(c(O)c1C2=O)C[C@@](O)(C(=O)CO)C[C@@H]3O[C@H]1C[C@H](N)[C@H](O)[C@H](C)O1 [doxorubicin]
- response of p53 shRNA cells compared to vector controls (viability) (Murine AML cells (M1p5)): significantly resistant

Structure (SMILES): O=C(O)CCCCC(CCSCc1ccccc1)SCc1ccccc1 (stereo not shown) [CPI-613]
- median survival [1, 4]: 6.7 months
- overall response rate (CR+CRi) [1, 4]: 50%
- CR/CRi rate, patients >60 years old ([1]; patients >60 years old (15/32)): 47%
- median survival, patients >60 years old ([1]; patients >60 years old (FIG. 8A)): 6.9 months
- median survival for all others ([1]; patients without response, CPI-613 with high dose cytarabine and mitoxantrone): 3 months
- median survival, poor risk ([1]; poor risk CPI-613 treated patients (FIG. 8B)): 5.5 months
- response rate, poor risk cytogenetics ([1]; poor risk cytogenetics (9CR+2CRi/24), CPI-613 with high dose cytarabine and mitoxantrone): 46%
- response rate versus historical controls, poor risk disease ([1]; poor risk disease, compared with the same chemotherapy without CPI-613): more than doubled
- median survival in responders ([1]; responders, CPI-613 with high dose cytarabine and mitoxantrone): 13.2 months
- sensitivity of p53 shRNA cells to doxorubicin in presence of CPI-613 (Murine AML cells (M1p5); 50 μM CPI-613 and 2.5, 5, or 10 nM Doxorubicin): increased sensitivity to doxorubicin to that of the controls
- response of p53 shRNA cells compared to vector controls (viability) (Murine AML cells (M1p5)): no change in response
- AML cell growth (AML cell lines): impairs AML cell growth
- combination effect of metformin and CPI-613 (AML cell lines; the two together): synergistic in vitro and in vivo
- phosphorylation of AMPK (AMPK): robust phosphorylation of AMPK
- overall response rate [2]: 29%
- phosphorylation of PDH (PDH): increased phosphorylation of PDH
- combination effect with doxorubicin in vivo (Baf3-p210 cells): acts synergistically with doxorubicin in vivo
- competition of normal versus AMPK deleted cells [3]: Normal cells out-competed AMPK deleted cells
